Results published in patent US20160037782A1, “COMBINATIONS OF ANTIFUNGAL COMPOUNDS AND TEA TREE OIL” (priority 2011, published 2016).

Assays:
rust in garlic plants = experiment: Control of rust in organically grown garlic plants, field spray trial (Example 2); type: in vivo, Puccinia alli; settings: 0.25%
Description: Organically grown garlic plants were treated with a 53.8% copper hydroxide solution, Timorex Gold, or a mixture of the two. The plants were sprayed six times, on the first day of the trial and then approximately every six days thereafter. Observations were made on days 1 (before spraying), 29 and 40 of the trial. The results are shown in the table below; d.a.a.=days after application; numbers are presented as % of disease severity on leaves. The effectiveness may have been comprised by the relatively large amount of rain that fell during the trial.
(§1) Treatments were applied in a randomized complete block, with 5 replications per treatment. Plot size in each instance was of 6 m length, containing 20 plants. Fungicidal treatment was applied using backpack sprayer equipped with a mist blower (STHIL 340) to spray a volume of 300 liter/ha. Disease severity was evaluated by determining the leaf area covered with rust (disease severity) on each of 20 leaves randomly selected per each replicate. To analyze the results, an arc-sin transformation was performed on the raw data, and analysis of variance (ANOVA) using the SAS GLM procedure was applied to the transformed data. The Tukey-Kramer Test was applied to determine whether differences between treatments were significant. In the tables, “a”, “b” and “c”, refer to differences in statistical analysis that are familiar to users of the Tukey-Kramer test.

rust in green onions = experiment: Control of rust in organically grown green onions, field spray trial (Example 3); type: in vivo, Puccinia alli; settings: 2.5 g/l
Description: as §1
In a manner similar to that in Example 2, the effect of TG and the copper hydroxide solution were tested on organically grown green onions, by application at a rate of 500 l/ha.

coffee plant rust = experiment: Coffee plant rust: compositions applied to coffee plant leaves, degree and severity of infection observed later (Example 1); type: in vivo, Hemileia vastatrix; settings: applied alone
Description: The effect of application of a TTO-containing composition (Timorex Gold®), alone and in combination with tebuconazole (simultaneous and in alternation), on coffee plant rust, was tested, by applying the compositions to coffee plant leaves and observing the degree and severity of infection later.

[1] = 4th evaluation, 1 day after 5th treatment
[2] = 5th evaluation, on day of 7th treatment
[3] = 6th evaluation, 7 days after 7th treatment
[4] = second evaluation, 2 days after second treatment
[5] = third evaluation, on day of fourth treatment

Compound | 40 d.a.a. % green relative to control (rust in garlic plants; 40 d.a.a.) [%] | 40 d.a.a.: % green (rust in garlic plants; 40 d.a.a.) [a %] | Day 0 % of infected area (rust in garlic plants; baseline before spraying) [a %] | Effectiveness in eradicating relative to control (rust in garlic plants; six days after fifth application) | % of infected area (rust in garlic plants; six days after fifth application, 300 liter/ha) [b %] | % area infected by rust (rust in green onions; [1]) [b %] | Efficacy of treatment, % (rust in green onions; [1]) [%] | % area infected by rust (rust in green onions; [2]) [b %] | Efficacy of treatment, % (rust in green onions; [2]) [%] | % area infected by rust (rust in green onions; [3]) [b %] | Efficacy of treatment, % (rust in green onions; [3]) [%] | % area infected by rust (rust in green onions; first evaluation, before treatment) [a %] | % area infected by rust (rust in green onions; [4]) [ab %] | Efficacy of treatment, % (rust in green onions; [4]) [%] | % area infected by rust (rust in green onions; [5]) [b %] | Efficacy of treatment, % (rust in green onions; [5]) [%] | retention of leaves by the plants (coffee plant rust) | severity of the disease (coffee plant rust; coffee plants)
[Cu+2].[OH-].[OH-] [Copper hydroxide, copper hydroxide] | 206.1 | 60.0 | 0.2 | 53.0 | 27.0 | 8.5 | 70.3 | 12.5 | 76.9 | 18.7 | 75.1 | 0.3 | 1.8 | 62.1 | 2.5 | 79.2 | – | –
CC(C)(C)C(O)(CCc1ccc(Cl)cc1)Cn1cncn1 (stereo not drawn) [tebuconazole] | – | – | – | – | – | – | – | – | – | – | – | – | – | – | – | – | higher retention of leaves | overall lower severity of the disease
